Measurements as given in ChEMBL document CHEMBL1201862, “PubChem BioAssay data set” (2004).
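Briefly, cells in 96-well plates were exposed to five compound concentrations for 48 h, and endpoints were estimated by linear interpolation. GI50: concentration for 50% inhibition of growth.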 Calls of active or inactive are those of the source. Rule as the data show it: active = GI50 up to about 1.1 µM and inactive = higher.

Legend:
Assay in all cases: NCI anticancer screen, dose series, 48 h
A498 = system: A498
A549 = system: A549
COLO 205 = system: COLO 205
EKVX = system: EKVX
HCT-116 = system: HCT-116
HOP-92 = system: HOP-92
Hs-578T = system: Hs-578T
K562 = system: K562
LOX IMVI = system: LOX IMVI
MCF7 = system: MCF7
MDA-MB-231 = system: MDA-MB-231
NCI-H23 = system: NCI-H23
NCI-H522 = system: NCI-H522
NCI/ADR-RES = system: NCI/ADR-RES
OVCAR-4 = system: OVCAR-4
SN12C = system: SN12C
SW-620 = system: SW-620
UACC-257 = system: UACC-257
UO-31 = system: UO-31

SMILES	GI50 (A498)	GI50 (A549)	GI50 (COLO 205)	GI50 (EKVX)	GI50 (HCT-116)	GI50 (HOP-92)	GI50 (Hs-578T)	GI50 (K562)	GI50 (LOX IMVI)	GI50 (MCF7)	GI50 (MDA-MB-231)	GI50 (NCI-H23)	GI50 (NCI-H522)	GI50 (NCI/ADR-RES)	GI50 (OVCAR-4)	GI50 (SN12C)	GI50 (SW-620)	GI50 (UACC-257)	GI50 (UO-31)
CC1=NN(c2nc(N)nc(C(C#N)C(=O)c3cc4c(cc3Cl)Sc3nccn3S4(=O)=O)n2)C(C)(C)C1 (stereo not given)	52.1 µM (inactive)	61.4 µM (inactive)	24.9 µM (inactive)	16.9 µM (inactive)	18 µM (inactive)	26.7 µM (inactive)	32.2 µM (inactive)	34.9 µM (inactive)	17.7 µM (inactive)	14.3 µM (inactive)	15.6 µM (inactive)	16.1 µM (inactive)	18.6 µM (inactive)	> 100 µM (inactive)	10.1 µM (inactive)	17.3 µM (inactive)	20.5 µM (inactive)	19.2 µM (inactive)	30.1 µM (inactive)
COC(=O)C1=C(C(=O)OC)C(C(=O)c2ccc(Br)cc2)N2N=C(c3ccc(Cl)cc3)C=CC12 (stereo not given)	> 100 µM (inactive)	98.2 µM (inactive)	> 100 µM (inactive)	> 100 µM (inactive)	> 100 µM (inactive)	72.1 µM (inactive)	> 100 µM (inactive)	> 100 µM (inactive)	> 100 µM (inactive)	82.8 µM (inactive)	> 100 µM (inactive)	> 100 µM (inactive)	26.2 µM (inactive)	> 100 µM (inactive)	> 100 µM (inactive)	> 100 µM (inactive)	> 100 µM (inactive)	> 100 µM (inactive)	> 100 µM (inactive)
CC(C)OP(=O)(OC(C)C)C(C(C)C)N(C)/C(F)=N/C(F)(F)F (stereo not given)	> 100 µM (inactive)	> 100 µM (inactive)	> 100 µM (inactive)	> 100 µM (inactive)	> 100 µM (inactive)	> 100 µM (inactive)	> 100 µM (inactive)	60.5 µM (inactive)	> 100 µM (inactive)	> 100 µM (inactive)	> 100 µM (inactive)	> 100 µM (inactive)	> 100 µM (inactive)	> 100 µM (inactive)		> 100 µM (inactive)	> 100 µM (inactive)	> 100 µM (inactive)	> 100 µM (inactive)
N#Cc1c(-c2ccc(Cl)cc2)c2c([nH]c1=O)-c1ccccc1SC2	> 100 µM (inactive)	30.3 µM (inactive)	22.3 µM (inactive)	21.1 µM (inactive)	35.4 µM (inactive)	17.7 µM (inactive)	67.9 µM (inactive)	32.9 µM (inactive)	22 µM (inactive)	27.5 µM (inactive)	29.1 µM (inactive)	93.3 µM (inactive)		29.2 µM (inactive)	38.6 µM (inactive)	54.3 µM (inactive)	> 100 µM (inactive)	> 100 µM (inactive)	56.9 µM (inactive)
Cc1cc2c(cc1Cl)SC(c1ccccc1)C(=O)NS2(=O)=O (stereo not given)	26.9 µM (inactive)			70.1 µM (inactive)	20.5 µM (inactive)	30.5 µM (inactive)	27.5 µM (inactive)	39.2 µM (inactive)	31.6 µM (inactive)	34 µM (inactive)	32.3 µM (inactive)	24.4 µM (inactive)	25.9 µM (inactive)	29.5 µM (inactive)	35.4 µM (inactive)		40 µM (inactive)	28.2 µM (inactive)	28.1 µM (inactive)
CCC(C(=O)C(=O)C(CC)P1(=O)OC(C)(C)CN1C(C)(C)C)P1(=O)OC(C)(C)CN1C(C)(C)C (stereo not given)	> 100 µM (inactive)	> 100 µM (inactive)	> 100 µM (inactive)	> 100 µM (inactive)	> 100 µM (inactive)	45.9 µM (inactive)	> 100 µM (inactive)	31.8 µM (inactive)	> 100 µM (inactive)	68.5 µM (inactive)	> 100 µM (inactive)	> 100 µM (inactive)	> 100 µM (inactive)	> 100 µM (inactive)		> 100 µM (inactive)	> 100 µM (inactive)	> 100 µM (inactive)	> 100 µM (inactive)
C/C(=N/NC(=S)N1CCN(C(=S)N/N=C(/C)c2ccccn2)CC1)c1ccccn1	8.81 µM (inactive)	9.12 µM (inactive)	4.16 µM (inactive)	15.6 µM (inactive)	6.89 µM (inactive)	> 46.2 µM (inactive)	> 38 µM (inactive)	16.3 µM (inactive)	5.94 µM (inactive)	5.24 µM (inactive)	45.2 µM (inactive)	10.1 µM (inactive)	7.64 µM (inactive)	4.16 µM (inactive)	8.2 µM (inactive)	8.65 µM (inactive)	7 µM (inactive)	16.3 µM (inactive)	2.69 µM (inactive)
COc1ccc2nc3ccc(OC)cc3c(SCc3ccccc3)c2c1	> 100 µM (inactive)	> 82.4 µM (inactive)	> 86.3 µM (inactive)	> 100 µM (inactive)	> 74 µM (inactive)	> 100 µM (inactive)	> 100 µM (inactive)	> 63.2 µM (inactive)	> 83.4 µM (inactive)	> 55.3 µM (inactive)	> 100 µM (inactive)	64.7 µM (inactive)	> 84.9 µM (inactive)	> 100 µM (inactive)	> 100 µM (inactive)	> 100 µM (inactive)	> 74.3 µM (inactive)	> 92.5 µM (inactive)	
N=C(N)NCCN1CCCCCc2ccccc21	> 10 µM (inactive)	> 10 µM (inactive)	> 10 µM (inactive)	> 10 µM (inactive)	> 10 µM (inactive)	5.24 µM (inactive)	8.05 µM (inactive)	> 10 µM (inactive)	> 10 µM (inactive)	> 10 µM (inactive)	> 10 µM (inactive)	> 10 µM (inactive)	> 10 µM (inactive)	> 10 µM (inactive)	> 10 µM (inactive)	> 10 µM (inactive)	> 10 µM (inactive)	> 10 µM (inactive)	
Cc1cn2c(/C=C3/C(=O)Nc4cccc(Cl)c43)c(Cl)nc2s1	63.2 µM (inactive)	27 µM (inactive)		55.8 µM (inactive)	60.1 µM (inactive)	34.3 µM (inactive)	4.13 µM (inactive)	> 100 µM (inactive)	> 100 µM (inactive)	> 100 µM (inactive)	15.3 µM (inactive)	25.8 µM (inactive)	> 100 µM (inactive)	> 100 µM (inactive)	> 100 µM (inactive)	> 100 µM (inactive)	3.18 µM (inactive)	> 100 µM (inactive)	> 100 µM (inactive)
CC(C)(C)C1CCC2c3c([nH]c4ccccc34)C3C(=O)N(c4cc(Br)cc(Br)c4)C(=O)C3C2C1 (stereo not given)	19.7 µM (inactive)	14.8 µM (inactive)	19.6 µM (inactive)	6.58 µM (inactive)	4.34 µM (inactive)	2.63 µM (inactive)	7 µM (inactive)		27.2 µM (inactive)	3.2 µM (inactive)	27 µM (inactive)	15.9 µM (inactive)	20.9 µM (inactive)	14.6 µM (inactive)	10.1 µM (inactive)	6.82 µM (inactive)	51.2 µM (inactive)	> 100 µM (inactive)	6.97 µM (inactive)
CCOC(=O)[C@@H]1ON2O[C@H](OC3CCCCC3c3ccccc3)C[C@H]3OC(=O)[C@@H]1C32 (stereo not given in full)	> 100 µM (inactive)	> 100 µM (inactive)	> 100 µM (inactive)	> 100 µM (inactive)	> 100 µM (inactive)	> 100 µM (inactive)	> 100 µM (inactive)	> 100 µM (inactive)	> 100 µM (inactive)	> 100 µM (inactive)	> 100 µM (inactive)	27 µM (inactive)	67.6 µM (inactive)	> 100 µM (inactive)		> 100 µM (inactive)	> 100 µM (inactive)	> 100 µM (inactive)	> 100 µM (inactive)
Cc1ccc(N2C(N)=C(C#N)C(C#N)(C#N)C2c2ccccc2)cc1 (stereo not given)	17 µM (inactive)	16.6 µM (inactive)	10.2 µM (inactive)	18 µM (inactive)	3.79 µM (inactive)	7.78 µM (inactive)	21 µM (inactive)		11.5 µM (inactive)	4.95 µM (inactive)	11.5 µM (inactive)	18.1 µM (inactive)	5.42 µM (inactive)	17 µM (inactive)	13.4 µM (inactive)	14.4 µM (inactive)	4.32 µM (inactive)	15.6 µM (inactive)	15.8 µM (inactive)
CC1OC2=N[C@@H]1C(=O)N[C@@H](C(C)C)C1=N[C@H](C(=O)N[C@@H](C(C)C)C3=N[C@H](C(=O)N[C@@H](C(C)C)C4=N[C@H](C(=O)N[C@H]2C(C)C)C(C)O4)C(C)O3)C(C)O1 (stereo not given in full)	> 10 µM (inactive)		> 10 µM (inactive)	> 10 µM (inactive)		> 10 µM (inactive)	> 10 µM (inactive)	> 10 µM (inactive)	> 10 µM (inactive)	> 10 µM (inactive)	> 10 µM (inactive)	> 10 µM (inactive)	> 10 µM (inactive)	> 10 µM (inactive)	> 10 µM (inactive)	> 10 µM (inactive)	> 10 µM (inactive)	> 10 µM (inactive)	> 10 µM (inactive)
Cc1cccc(-c2cc(O)c3cc(C)cnc3n2)c1	0.372 µM (active)	0.279 µM (active)	0.105 µM (active)	0.705 µM (active)	0.118 µM (active)	11.7 µM (inactive)	0.244 µM (active)	0.0411 µM (active)	0.478 µM (active)	0.305 µM (active)	0.518 µM (active)	0.344 µM (active)	0.0955 µM (active)	0.122 µM (active)	1.95 µM (inactive)	0.571 µM (active)	0.0475 µM (active)		0.745 µM (active)
